Several values for one entry are separate records, joined by “and”; a condition that tells them apart may be missing. Identical values can stand only once.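 Test compounds were applied to cells in 96-well plates for 48 hours at 5 doses. GI50: concentration for 50% inhibition of growth. TGI: total growth inhibition.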
What was measured:
Test in all cases: NCI tumour cell line growth inhibition, 48 h
MOLT-4 leukemia = test system: MOLT-4 leukemia
K-562 leukemia = test system: K-562 leukemia
A498 renal = test system: A498 renal
786-0 renal = test system: 786-0 renal
PC-3 prostate = test system: PC-3 prostate
HCC-2998 colon = test system: HCC-2998 colon
MDA-N = test system: MDA-N
HT29 colon = test system: HT29 colon
SK-MEL-28 melanoma = test system: SK-MEL-28 melanoma

Row | SMILES | TGI (MOLT-4 leukemia) | TGI (K-562 leukemia) | TGI (A498 renal) | TGI (786-0 renal) | TGI (PC-3 prostate) | TGI (HCC-2998 colon) | TGI (MDA-N) | TGI (HT29 colon) | TGI (SK-MEL-28 melanoma) | GI50 (K-562 leukemia) | GI50 (MDA-N) | GI50 (HT29 colon) | GI50 (SK-MEL-28 melanoma)
1 | CCOC(=O)CNc1nc(=O)c2c(=O)oc(Cl)cc2o1 | 29.8 µM | 24.4 µM | 38 µM | 21.9 µM | 26 µM | 29 µM | 48 µM | 22.6 µM | 63.7 µM |  |  |  | 
2 | CCOC(=O)C(Cc1cccn1C(=O)OC(C)(C)C)[N+](=O)[O-] (stereo not drawn) | 50.4 µM | 79.6 µM | 40.6 µM | 51.3 µM | 45.3 µM | 42.4 µM | 90.4 µM | 50.3 µM | 69 µM |  |  |  | 
3 | O=C1c2cc(Cl)ccc2NC(=NCCCl)C2CSCN12 (stereo not drawn) | > 100 µM | > 100 µM | > 100 µM | > 100 µM | > 100 µM | > 100 µM | > 100 µM | > 100 µM | > 100 µM |  |  |  | 
4 | CC1OC(OC2C(OC(=O)[C@]34CCC(C)(C)C[C@H]3C3=CC[C@@H]5[C@@]6(C)CC[C@H](OC7OC(C(=O)O)C(O)C(OC8OCC(O)C(O)C8O)C7O)C(C)(C)[C@@H]6CC[C@@]5(C)[C@]3(C)CC4)OCC(O)C2O)C(O)C(OC2OCC(O)C(O)C2O)C1OC1OCC(O)C(OC2OCC(O)C(O)C2O)C1O (stereo partly drawn) | 25 µM and 49.8 µM | 21.4 µM and 33.6 µM | 4.79 µM and 8.63 µM | 25.7 µM and 43 µM | 21.7 µM and 23.1 µM | 4.13 µM and 11.9 µM | 19.8 µM and 31.8 µM | 15 µM and 24.2 µM | 15.9 µM and 30.8 µM | 7.42 µM and 17.1 µM | 7.14 µM and 16.4 µM | 4.28 µM and 11.9 µM | 5.5 µM and 16.3 µM
5 | CC(=O)OC1COC(Nc2nc(NCc3ccccc3)n(C)c(=O)c2N=O)C(OC(C)=O)C1OC(C)=O (stereo not drawn) | > 10 µM | > 10 µM | > 10 µM | > 10 µM | > 10 µM | > 10 µM | > 10 µM | > 10 µM | > 10 µM |  |  |  | 
6 | c1c[nH]c(C23C4C5C6C4C2C6C53)n1 (stereo not drawn) | > 100 µM | > 100 µM | > 100 µM | > 100 µM | > 100 µM | > 100 µM | > 100 µM | > 100 µM | > 100 µM |  |  |  | 
7 | CC[C@H]1C=CCC[C@@]2(C[C@@H]3CC[C@H]4[C@@H](C(=O)OCCCCCCCCCCCCCCCC(=O)N(CCCN)C[C@@H](O)CCN)[C@@]5(CCC[C@@H](C)O5)NC(=[N+]34)N2)O1 | 2.84 µM | 3.18 µM | 6.62 µM | 3.3 µM | 3.1 µM | 3.12 µM | 3.01 µM | 2.96 µM | 2.88 µM |  |  |  | 
8 | CC(=O)N=C1N(/C=C2\C(=O)Oc3ccccc3C2=O)C(=O)/C(=C/c2ccc(NC(C)=O)cc2)N1C | > 100 µM | > 100 µM | > 100 µM | > 100 µM | > 100 µM | > 100 µM | > 100 µM | > 100 µM | > 100 µM |  |  |  | 
9 | Oc1ccc(Cl)cc1CN1CCN(Cc2cc(Cl)ccc2O)C1 | 12 µM | 5.86 µM | 29.4 µM | 5.93 µM | 6.69 µM | 2.97 µM | 6.43 µM | 13 µM | 6.78 µM |  |  |  | 
10 | CC(C)=CCC/C(C)=C/CC/C(C)=C/CC/C(=C/CC/C(C)=C\CC/C(C)=C/CC/C(C)=C/CC/C(C)=C/Cc1cc(O)ccc1O)CO | > 59.5 µM | > 100 µM | 18.2 µM | 9.66 µM | 15.5 µM | > 42.1 µM | 64.3 µM | 18.9 µM | 10.9 µM |  |  |  | 
11 | Cc1cn([C@@H]2O[C@H](CO[Si](C)(C)C(C)(C)C)[C@]3(O[C@H]3C(=O)NN)[C@H]2O[Si](C)(C)C(C)(C)C)c(=O)[nH]c1=O | 6.02 µM | 7.17 µM | 30.5 µM | 14.7 µM | 11.4 µM | 7.78 µM | 13.3 µM | 7.79 µM | 25.3 µM |  |  |  | 
12 | CC(C)C(/C=C/c1ccc(Cl)c(Cl)c1)=N\NC(=O)N/N=C(/C=C/c1ccc(Cl)c(Cl)c1)C(C)C | > 100 µM | > 100 µM | > 100 µM | > 100 µM | > 100 µM | > 100 µM | > 100 µM | > 100 µM | > 100 µM |  |  |  | 
13 | CC1=Nc2sc3c(c2C2=NCCN12)CCCC3 | 60.5 µM | > 100 µM | 90.6 µM | 46 µM | 65.9 µM | > 100 µM | 44.2 µM | 36.5 µM | 65.4 µM |  |  |  | 
14 | Cc1cc(S(=O)(=O)Nc2nc(N)nc(N(C)C)n2)c(SCC(=O)O)cc1Cl | > 10 µM | > 10 µM | > 10 µM | > 10 µM | > 10 µM | > 10 µM | > 10 µM | > 10 µM | > 10 µM |  |  |  | 
15 | Cc1ccc(NC(=O)CSc2nc(=O)[nH]c3nc[nH]c23)cc1 | > 100 µM | > 100 µM | 89.9 µM | > 100 µM | > 100 µM | > 100 µM | > 100 µM | > 100 µM | > 100 µM |  |  |  | 
16 | CCCCCCCCCCCCCCCC(=O)N(CCCCCCCCCCC(=O)O)CC(O)C(O)C(OC1OC(CO)C(O)C(O)C1O)C(O)CO (stereo not drawn) | 46.4 µM | 41.4 µM | > 100 µM | > 100 µM | > 100 µM | 49.5 µM | > 100 µM | 42.8 µM | 34.6 µM |  |  |  | 

Reference: PubChem BioAssay (NCI)
